Where a name gives a salt, the structure may show the parent alone.
Key:
Human DYRK1B = target: T1, Human DYRK1B (Homo sapiens, UniProt Q9Y463); assay: DYRK1B Kinase TR-FRET (IMAP-Tb) Assay; assay type: biochemical; details: TR-FRET (IMAP-Tb); ATP 70 μM; 37° C. 60 minutes; read-out: Enzyme IC50 (μM) DYRK1B
T1 construct: purchased Invitrogen PR8350B (former PV4649)

Human DYRK1A = target: T2, Human DYRK1A (Homo sapiens, UniProt Q13627); assay: DYRK1A Kinase TR-FRET (IMAP-Tb) Assay; assay type: biochemical; details: TR-FRET (IMAP-Tb); ATP 70 μM; 37° C. 60 minutes; read-out: Enzyme IC50 (μM) DYRK1A
T2 construct: purchased Invitrogen PV3997
Method in brief: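 Recombinant human DYRK1A phosphorylated fluorescent substrate peptide (1.0 μM) with ATP in 10 mM HEPES pH 7.0, 50 mM NaCl, 5 mM MgCl2, 1 mM DTT, 1 mM NaVO4, 0.02% BSA for 60 min at 37 °C. Phosphopeptide detected by IMAP terbium TR-FRET; IC50 reported.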

[1] = tested on: SW620 human colon cancer cells; assay: SW620 Cell Viability Assay; assay type: cell-based; details: Homo sapiens, SW-620, 96 h, CellTiter-Glo; 4 days incubation; read-out: Cellular EC50 (μM) SW620
Method in brief: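 SW620 human colon cancer cells, some attached 24 h then serum-starved 48 h before dosing; compounds prepared in serum-supplemented medium. Cells incubated with compound 4 days at 37 °C, 5% CO2, and viability measured by CellTiter-Glo luminescence.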

T1 sequence (Q9Y463 whole entry): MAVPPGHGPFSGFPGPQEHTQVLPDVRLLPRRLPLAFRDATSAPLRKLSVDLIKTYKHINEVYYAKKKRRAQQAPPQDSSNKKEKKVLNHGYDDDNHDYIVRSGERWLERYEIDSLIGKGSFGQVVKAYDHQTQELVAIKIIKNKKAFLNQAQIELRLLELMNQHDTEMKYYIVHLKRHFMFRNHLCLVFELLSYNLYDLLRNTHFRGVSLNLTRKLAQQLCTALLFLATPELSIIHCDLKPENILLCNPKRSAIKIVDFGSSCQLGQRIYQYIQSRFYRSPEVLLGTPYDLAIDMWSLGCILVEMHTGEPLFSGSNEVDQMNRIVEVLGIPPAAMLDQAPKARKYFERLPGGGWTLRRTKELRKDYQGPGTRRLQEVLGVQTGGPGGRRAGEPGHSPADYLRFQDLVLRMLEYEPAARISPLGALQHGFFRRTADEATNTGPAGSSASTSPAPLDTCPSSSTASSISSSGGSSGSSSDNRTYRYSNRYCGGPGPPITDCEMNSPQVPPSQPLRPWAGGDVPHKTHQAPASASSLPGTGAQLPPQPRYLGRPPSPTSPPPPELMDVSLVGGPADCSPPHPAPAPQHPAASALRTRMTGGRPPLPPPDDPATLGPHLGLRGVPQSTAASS

Row | SMILES | IC50 (Human DYRK1B) | IC50 (Human DYRK1A) | EC50 [1]
1 | NCCC(NC(=O)c1cc(NC(=O)c2cc3cnc(N4CCOCC4)nc3[nH]c2=O)c(Cl)cc1F)c1cccc(Cl)c1 (stereo not drawn) [Example 160, 2-Morpholin-4-yl-7-oxo-7,8-dihydro-pyrido[2,3-d]pyrimidine-6-carboxylic acid {5-[3-amino-1-(3-chloro-phenyl)-propylcarbamoyl]-2-chloro-4-fluoro-phenyl}-amide] | 0.0932 µM | 0.0532 µM | 0.219 µM
2 | O=C(NCc1cccc(F)c1)c1ccc(Cl)c(NC(=O)c2cc3cnc(N4CCOCC4)nc3[nH]c2=O)c1 [Example 161, 2-Morpholin-4-yl-7-oxo-7,8-dihydro-pyrido[2,3-d]pyrimidine-6-carboxylic acid [2-chloro-5-(3-fluoro-benzylcarbamoyl)-phenyl]-amide] | 0.0472 µM | 0.0462 µM | > 10 µM
3 | O=C(NCc1cccc(F)c1)c1cc(NC(=O)c2cc3cnc(N4CCOCC4)nc3[nH]c2=O)c(Cl)cc1F [Example 162, 2-Morpholin-4-yl-7-oxo-7,8-dihydro-pyrido[2,3-d]pyrimidine-6-carboxylic acid [2-chloro-4-fluoro-5-(3-fluoro-benzylcarbamoyl)-phenyl]-amide] | 0.135 µM | 0.0432 µM | > 10 µM
4 | COc1ncc2cc(C(=O)Nc3cc(C(=O)NCCC(N)=O)ccc3Cl)c(=O)[nH]c2n1 [Example 167, N-(5-(3-Amino-3-oxopropylcarbamoyl)-2-chlorophenyl)-2-methoxy-7-oxo-7,8-dihydropyrido[2,3-d]pyrimidine-6-carboxamide] | 0.769 µM | 0.338 µM | > 10 µM
5 | COc1nc(C)c2cc(C(=O)Nc3cc(C(=O)NC(CN)c4ccccc4)ccc3Cl)c(=O)[nH]c2n1 (stereo not drawn) [Example 170, N-(5-(2-Amino-1-phenylethylcarbamoyl)-2-chlorophenyl)-2-methoxy-4-methyl-7-oxo-7,8-dihydropyrido[2,3-d]pyrimidine-6-carboxamide 2,2,2-trifluoroacetate] | 0.117 µM | 0.0164 µM | 3.21 µM
6 | CN1CCN(c2ncc3cc(C(=O)Nc4cc(C(=O)NCc5ccccc5)ccc4Cl)c(=O)[nH]c3n2)CC1 [Example 172, 2-(4-Methyl-piperazin-1-yl)-7-oxo-7,8-dihydro-pyrido[2,3-d]pyrimidine-6-carboxylic acid (5-benzylcarbamoyl-2-chloro-phenyl)-amide] | 0.208 µM | 0.109 µM | 0.49 µM
7 | C[C@@H](NC(=O)c1ccc(Cl)c(NC(=O)c2cc3cnc(N4CCN(C)CC4)nc3[nH]c2=O)c1)c1ccccc1 [Example 174, 2-(4-Methyl-piperazin-1-yl)-7-oxo-7,8-dihydro-pyrido[2,3-d]pyrimidine-6-carboxylic acid [2-chloro-5-((R)-1-phenyl-ethylcarbamoyl)-phenyl]-amide] | 0.207 µM | 0.0873 µM | 0.512 µM
8 | O=C(NCc1cccc(Cl)c1)c1ccc(Cl)c(NC(=O)c2cc3cnc(N4C[C@H]5CC[C@@H](C4)O5)nc3[nH]c2=O)c1 [Example 179, 2-(1R,5S)-8-Oxa-3-aza-bicyclo [3.2.1]oct-3-yl-7-oxo-7,8-dihydro-pyrido[2,3-d]pyrimidine-6-carboxylic acid [2-chloro-5-(3-chloro-benzylcarbamoyl)-phenyl]amide] | 0.131 µM | 0.0369 µM | 0.367 µM
9 | O=C(NC(CO)c1ccccc1)c1ccc(Cl)c(NC(=O)c2cc3cnc(N4C[C@H]5CC[C@@H](C4)O5)nc3[nH]c2=O)c1 (stereo partly drawn) [Example 181, 2-(1R,5S)-8-Oxa-3-aza-bicyclo [3.2.1]oct-3-yl-7-oxo-7,8-dihydro-pyrido[2,3-d]pyrimidine-6-carboxylic acid [2-chloro-5-(2-hydroxy-1-phenyl-ethylcarbamoyl)-phenyl]amide] | 0.148 µM | 0.063 µM | 1.88 µM
10 | O=C(NC(CCO)c1ccccc1)c1ccc(Cl)c(NC(=O)c2cc3cnc(N4C[C@H]5CC[C@@H](C4)O5)nc3[nH]c2=O)c1 (stereo partly drawn) [Example 182, 2-(1R,5S)-8-Oxa-3-aza-bicyclo [3.2.1]oct-3-yl-7-oxo-7,8-dihydro-pyrido[2,3-d]pyrimidine-6-carboxylic acid [2-chloro-5-(3-hydroxy-1-phenyl-propylcarbamoyl)-phenyl]amide] | 0.081 µM | 0.083 µM | 1.12 µM
11 | NCCC(NC(=O)c1ccc(Cl)c(NC(=O)c2cc3cnc(N4C[C@H]5CC[C@@H](C4)O5)nc3[nH]c2=O)c1)c1ccccc1 (stereo partly drawn) [Example 183, 2-(1R,5S)-8-Oxa-3-aza-bicyclo [3.2.1]oct-3-yl-7-oxo-7,8-dihydro-pyrido[2,3-d]pyrimidine-6-carboxylic acid [5-(3-amino-1-phenyl-propylcarbamoyl)-2-chloro-phenyl]amide; hydrochloride] | 0.0077 µM | 0.0046 µM | 0.027 µM
12 | COc1ncc2cc(C(=O)Nc3cc(C(=O)NCC[C@@H](N)c4ccccc4)ccc3Cl)c(=O)[nH]c2n1 [Example 184, (R)—N-(5-(3-Amino-3-phenylpropylcarbamoyl)-2-chlorophenyl)-2-methoxy-7-oxo-7,8-dihydropyrido[2,3-d]pyrimidine-6-carboxamide] | 0.691 µM | 0.331 µM | 5.09 µM
